Laboratory results from patent publication US7615641B2, “Long chain aliphatic alcohol derivatives and methods of making and using same” (Sino Pharmaceuticals Corporation, priority 2004, dated 2009).

melting point [°C] | SMILES
58 to 60 | CCCCCCCCCCCCCCCCCCCCCCCCCCCCOC(=O)c1cccnc1.Cl
65 to 70 | CCCCCCCCCCCCCCCCCCCCCCCCCCCCOC(=O)c1cccnc1 [1-octacosanyl nicotinate]
